Test results as given in patent publication US11548923B2, “Peptide compositions and methods of use thereof for disrupting TEAD interactions” (Fred Hutchinson Cancer Center, priority 2017, dated 2023).
“Also recorded” adds a separate entry of the source. Where a SMILES comes first, the peptide text is derived from it. Bridges are numbered along the chain shown (N, C = ends).

Key:
[1] = target: T1, YAP-TEAD interaction (Homo sapiens, UniProt P28347); experiment: YAP-TEAD disruption co-immunoprecipitation (Myc-TEAD resin, FLAG-YAP lysate); assay type: biochemical; details: for FLAG-YAP pull-down with Myc-TEAD resin in the presence of peptide: Silver stain and Western blot
T1 construct: expressed in transfected cells; host or cells: 293T cells (lysates)
T1 sequence (P28347 whole entry): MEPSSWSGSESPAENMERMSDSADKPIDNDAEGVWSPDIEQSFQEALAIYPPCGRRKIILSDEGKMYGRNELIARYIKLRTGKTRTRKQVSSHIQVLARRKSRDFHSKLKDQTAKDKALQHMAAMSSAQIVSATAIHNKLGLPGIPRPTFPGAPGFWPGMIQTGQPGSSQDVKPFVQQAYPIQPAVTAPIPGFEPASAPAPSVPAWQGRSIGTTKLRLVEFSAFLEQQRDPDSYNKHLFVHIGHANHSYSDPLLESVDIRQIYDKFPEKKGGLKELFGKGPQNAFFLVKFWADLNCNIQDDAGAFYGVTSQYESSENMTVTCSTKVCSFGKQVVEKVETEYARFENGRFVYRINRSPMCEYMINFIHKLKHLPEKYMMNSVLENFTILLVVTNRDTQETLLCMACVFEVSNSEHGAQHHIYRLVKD

[2] = target: T2, TEAD (Homo sapiens, UniProt P28347); experiment: Mammalian surface display (SDGF vector, HEK-293 cells) TEAD-binding flow cytometry; details: for TEAD binding of HEK-293 cells expressing SDGF-peptide: stained with 200 nM AF647-Streptavidin-TEAD; for TEAD binding of cells displaying variant versus parent peptide: HEK-293 suspension cells transfected with SDGF constructs
T2 construct: GST; made in house; host or cells: Hi5 insect cells (baculovirus, BacMagic, pIEX-BAC3)
T2 sequence (P28347 209-426): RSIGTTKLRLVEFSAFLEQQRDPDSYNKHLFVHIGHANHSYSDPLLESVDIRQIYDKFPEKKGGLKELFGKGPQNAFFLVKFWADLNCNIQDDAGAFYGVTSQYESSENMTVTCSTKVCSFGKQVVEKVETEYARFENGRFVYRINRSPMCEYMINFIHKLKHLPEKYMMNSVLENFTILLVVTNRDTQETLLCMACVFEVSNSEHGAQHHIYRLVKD

[3] = target: T2, TEAD; experiment: TEAD binding of SDGF-displayed peptides after exposure to reducing agent; details: 5 minutes, 20 nM TEAD
Protocol: Peptides of this disclosure were also tested to evaluate if binding to TEAD was affected by exposure of peptide to reducing conditions. […] Cultures were grown for two days followed by incubation in 10 mM GSH or 10 mM DTT. Finally, cells were stained with TEAD. FIG. 13 illustrates binding to TEAD after cells expressing SDGF-SEQ ID NO: 9 are exposed to a reducing agent. FIG. 13A illustrates a flow cytometry plot showing binding of HEK-293 suspension cells transfected with SDGF-SEQ ID NO: 1 (GFP) incubated for 5 minutes in PBS, 10 mM DTT, or 10 mM glutathione (GSH) before staining with 20 nM biotinylated TEAD and 20 nM AF647-streptavidin. FIG. 13B illustrates a flow cytometry plot showing binding of HEK-293 suspension cells transfected with SDGF-SEQ ID NO: 9 (GFP) incubated for 5 minutes in PBS, 10 mM DTT, or 10 mM glutathione (GSH) before staining with 20 nM biotinylated TEAD and 20 nM AF647-streptavidin.

[4] = target: T3, biotinylated TEAD (Homo sapiens, UniProt P28347); experiment: Surface plasmon resonance (SPR) binding of soluble peptides to captured biotinylated TEAD; details: soluble peptides
T3 construct: GST; made in house; host or cells: Hi5 insect cells (baculovirus, BacMagic, pIEX-BAC3)
T3 sequence (P28347 209-426): as above

[5] = test system: 8×GTIIC (TEAD luciferase reporter); experiment: Cytosolic peptide expression with 8×GTIIC TEAD luciferase reporter; assay type: cell-based; details: mCherry-T2a-peptide co-transfected with FLAG-YAP and 8×GTIIC; vs. YAP only
From the text: Cytosolic Peptide Expression. Peptides, FLAG-tagged or not, can be cloned into a mammalian expression vector consisting of a CMV promoter, then a monocistronic mCherry-T2a-peptide sequence. These can be transfected, along with (where indicated) pFLAG-YAP1 and 8×GTIIC-luciferase (Addgene plasmid #34615) into 293T cells. 24 hrs post-transfection, cells can be either harvested for luminescence (ONE-Glo, Promega) or Western blot (anti-FLAG M2, Sigma). Protein Transfection with dfTAT Reagent. Solution was diluted to 50 μM in PBS for a 10× working stock, for a final concentration of 5 μM in culture wells. […] For confirmation of peptide cell penetration, 293T and HeLa cells can be plated in a 96-well plate in DMEM with 10% FBS, 1× penicillin/streptomycin (Pen/Strep) and grown overnight to ˜50% confluence. Cells can be gently washed 3 times with PBS containing 1 mM CaCl2) and 0.5 mM MgCl2, then 2 times in serum-free DMEM. Wells (50 μL total) received either 5 μM (final) peptide in PBS, or PBS alone, and can also receive either 5 μM (final) dfTAT reagent in PBS, or PBS alone, before a 60 minute incubation at 37° C. and 5% CO2 in a humidified tissue culture incubator. After incubation, cells can be gently washed 3 times in PBS, which can be followed by fixation at 4° C. for 10 minutes with 4% formaldehyde in PBS. […]

[6] = target: T4, YAP:TEAD dimers (Homo sapiens, UniProt P28347); experiment: YAP:TEAD proximity ligation assay (PLA) in HeLa cells; assay type: cell-based; details: 5 μM peptide with 5 μM dfTAT
T4 construct: endogenous in cells; host or cells: HeLa cells
T4 sequence (P28347 whole entry): as the sequence (P28347 whole entry) above
Protocol: Proximity Ligation Assay. […] HeLa cells can be seeded in an 8-well chamber slide (Nunc Lab-Tek II) in DMEM+10% FBS and 1× Pen/Strep, and can be grown overnight, reaching ˜50% confluence. Cells can be gently washed 3 times with PBS containing 1 mM CaCl2 and 0.5 mM MgCl2, then 2 times in serum-free DMEM. Wells (120 μL total) can receive either 5 μM (final) peptide in PBS, or PBS alone, and can also receive either 5 μM (final) dfTAT reagent in PBS, or PBS alone, before a 90 minute incubation at 37° C. and 5% CO2 in a humidified tissue culture incubator. After incubation, cells can be gently washed 3 times in PBS, followed by fixation at 4° C. for 10 minutes with 4% formaldehyde in PBS. […]
PLA can be performed using the Duolink In Situ Fluorescence (Far Red) kit according to manufacturer's instructions, using supplied buffers without substitution and at recommended volumes for 1 cm^2 samples. […] For quantitation of nuclear speckles in ImageJ, UV and Cy5.5 filtered images can be Z-projected (maximum intensity), and can be processed using a custom macro to identify nuclear boundaries (UV channel) and speckles (Cy5.5 channel). […]
Proximity ligation assay (PLA) in HeLa cells was performed using primary antibodies against YAP and TEAD, in which speckles (APC channel) overlapping DAPI-stained nuclei (UV channel) were produced. […] All P-values were determined by two-tailed T-test.

[7] = target: T5, TEAD binding to surface-displayed YAP (Homo sapiens, UniProt P28347); experiment: Competitive binding of peptides to TEAD versus cell surface-displayed YAP (flow cytometry)
T5 construct: made in house; host or cells: TEAD: Hi5 insect cells
T5 sequence (P28347 209-426): as the sequence (P28347 209-426) above
Protocol: FIG. 11D illustrates a flow cytometry plot of cells expressing SDGF-YAP that were incubated with 5 nM TEAD and then washed. Cells were immediately stained with AF647-streptavidin and analyzed for YAP-expressing cells that have bound TEAD. FIG. 11E illustrates a flow cytometry plot of cells expressing SDGF-YAP that were incubated with 5 nM TEAD and then washed. Cells were incubated on ice for 1 hour, stained with AF647-streptavidin and analyzed for YAP-expressing cells that have bound TEAD. FIG. 11F illustrates a flow cytometry plot of cells expressing SDGF-YAP that were incubated with 5 nM TEAD and then washed. […] FIG. 11G illustrates a flow cytometry plot of cells expressing SDGF-YAP that were incubated with 5 nM TEAD and then washed.

GSPDEYIERAKECCKKGDIQCCLRYFEESGDPNVMLICLFCP [SEQ ID NO: 1]
FLAG-YAP pull-down with Myc-TEAD resin in the presence of peptide [1]: not pulled down
inhibition of FLAG-YAP binding to Myc-TEAD resins ([1]; dilution series of peptide, Western blot): dose-dependent inhibition
TEAD binding profile of displayed peptide ([2]; 20 nM TEAD concentration and 2-step staining): apparent but weak
TEAD binding of HEK-293 cells expressing SDGF-peptide [2]: displayed binding to TEAD
binding to TEAD after reducing agent treatment ([3]; 10 mM DTT): partial loss in binding to TEAD
binding to TEAD after reducing agent treatment ([3]; 10 mM GSH): no loss in binding to TEAD

GSPDEYIERAKECCKKGDIQCCLRYFEESGDPNVMLICLACP [SEQ ID NO: 7]
FLAG-YAP pull-down with Myc-TEAD resin in the presence of peptide [1]: not pulled down
TEAD binding of cells displaying variant versus parent peptide [2]: loss of binding to TEAD
affinity/binding to TEAD as compared to a peptide of SEQ ID NO: 1 [4]: reduced affinity for TEAD

GSPDEYIERAKECCKKGDIQCCLRIFDESKDPNVMLICLFCW [SEQ ID NO: 12]
TEAD luciferase reporter activity (relative luminescence units) [5]: reduced

GSPDEYIERAKECCKKQDIQCCLRIFDESKDPNVMLICLFCP [SEQ ID NO: 11]
TEAD binding with the extra wash step ([2]; 20 nM TEAD, Extra Wash protocol): diminished binding

GSPDEYIERAKECCKKGDIQCCLRYFEESGDPNVMLICAFCP [SEQ ID NO: 5]
TEAD binding of cells displaying variant versus parent peptide [2]: marginal loss of binding to TEAD
affinity/binding to TEAD as compared to a peptide of SEQ ID NO: 1 [4]: reduced affinity for TEAD

GSLERLKKCCNQGLDCEEARWKCELEALAQGKNRETCLEEC [SEQ ID NO: 42]
TEAD binding of cells displaying variant versus parent peptide [2]: loss of binding to TEAD

GSPDEYIERAKESSKKGDIQSSLRYFEESGDPNVMLISLFSP [SEQ ID NO: 184]
TEAD binding of cells displaying variant versus parent peptide [2]: loss of binding to TEAD

GSLERLKKCCNQGLDCEEARWKCELEALFQGKNRETCLEEC [SEQ ID NO: 2]
TEAD binding of HEK-293 cells expressing SDGF-peptide [2]: displayed binding to TEAD

CC[C@H](C)[C@@H]1NC(=O)[C@H](C)NC(=O)[C@H](CO)NC(=O)[C@@H]2CSSC[C@@H]3NC(=O)[C@H](CCC(N)=O)NC(=O)[C@H](CC(N)=O)NC(=O)[C@H](CC(N)=O)NC(=O)[C@H](CCC(N)=O)NC(=O)[C@H](CSSC[C@H](NC(=O)[C@H](CCC(N)=O)NC(=O)[C@H](CC(N)=O)NC(=O)[C@H](CC(=O)O)NC(=O)[C@H](Cc4ccc(O)cc4)NC(=O)[C@H](CC(C)C)NC(=O)CNC(=O)[C@H](Cc4ccccc4)NC(=O)[C@H](CO)NC(=O)CN)C(=O)N[C@@H](C)C(=O)N[C@@H]([C@@H](C)O)C(=O)N[C@@H](CO)C(=O)N[C@@H](CC(=O)O)C(=O)N[C@@H](C)C(=O)N2)NC(=O)[C@H](CCCCN)NC(=O)CNC(=O)[C@H](CCC(N)=O)NC(=O)CNC(=O)[C@H](CO)NC(=O)CNC(=O)[C@H]([C@@H](C)O)NC(=O)[C@H](Cc2c[nH]c4ccccc24)NC(=O)[C@H](Cc2ccc(O)cc2)NC(=O)[C@H](CCCCN)NC(=O)[C@H](CSSC[C@@H](C(=O)N[C@@H](Cc2ccc(O)cc2)C(=O)O)NC(=O)[C@H](CCCNC(=N)N)NC3=O)NC1=O [SEQ ID NO: 3] (H-GSFGLYDNQCATSDACSAICKYWTGSGQGKCQNNQCRCY-OH; disulfide 10-31, 16-36, 20-38)
TEAD binding of HEK-293 cells expressing SDGF-peptide [2]: displayed binding to TEAD
affinity/binding to TEAD as compared to a peptide of SEQ ID NO: 1 [4]: lower binding affinity for TEAD

GSLERLKKCCNQGLDCEEARWKCELEAAFQGKNRETCLEEC [SEQ ID NO: 41]
TEAD binding of cells displaying variant versus parent peptide [2]: loss of binding to TEAD

GSLERLKKSSNQGLDSEEARWKSELEALFQGKNRETSLEES [SEQ ID NO: 185]
TEAD binding of cells displaying variant versus parent peptide [2]: loss of binding to TEAD

GSPDEYIERAKECCKKGDIQCCLRYFEESGDPNVALICLFCP [SEQ ID NO: 6]
TEAD binding of cells displaying variant versus parent peptide [2]: loss of binding to TEAD

GSLERLKKCCNQGLDCEEARWKCEAEALFQGKNRETCLEEC [SEQ ID NO: 40]
TEAD binding of cells displaying variant versus parent peptide [2]: loss of binding to TEAD

GSPDEYIERAKECCKKQDIQCCLRIFDESKDPNVMLICLFCW [SEQ ID NO: 9]
YAP:TEAD PLA speckles per nucleus [6]: significantly reduces YAP:TEAD dimers in the nucleus; also recorded: significantly reduced
mean fluorescence intensity (MFI) of TEAD staining normalized to SEQ ID NO: 1 ([2]; 20 nM TEAD, Normal and Extra Wash protocols): performed the best
TEAD binding to YAP-displaying cells ([7]; YAP-displaying cells first incubated with TEAD prior to addition of peptide): near complete elimination of TEAD binding to YAP
TEAD binding to YAP-displaying cells ([7]; cells incubated with peptide, then 5 nM TEAD): near complete elimination of TEAD binding to YAP
binding to TEAD after reducing agent treatment ([3]; 10 mM DTT): no loss in binding to TEAD
binding to TEAD after reducing agent treatment ([3]; 10 mM GSH): no loss in binding to TEAD

GSPDEYIERAKECCKKGDIQCCLRYFAESGDPNVMLICLFCP [SEQ ID NO: 4]
TEAD binding of cells displaying variant versus parent peptide [2]: loss of binding to TEAD
